In ChEMBL document CHEMBL1201862, “PubChem BioAssay data set” (2004):
The source made the active and inactive calls.

Tests used:
Cytochrome P450 2D6 = Cytochrome P450 2D6 (Homo sapiens, UniProt P10635);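 also: CYP2D6 member of a cytochrome P450 panel assay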
Cytochrome P450 2C19 = Cytochrome P450 2C19 (Homo sapiens, UniProt P33261); assay: Cytochrome panel assay with activity outcomes. Panel member name: p450-cyp2c19 Compounds with AC50 equal or less than 10 uM are considered active; assay type: functional
Cytochrome P450 2C9 = Cytochrome P450 2C9 (Homo sapiens, UniProt P11712)
Cytochrome P450 1A2 = target: T1, Cytochrome P450 1A2 (Homo sapiens, UniProt P05177);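 also: PubChem cytochrome P450 panel assay, CYP1A2 panel member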
T1 sequence (P05177 whole entry): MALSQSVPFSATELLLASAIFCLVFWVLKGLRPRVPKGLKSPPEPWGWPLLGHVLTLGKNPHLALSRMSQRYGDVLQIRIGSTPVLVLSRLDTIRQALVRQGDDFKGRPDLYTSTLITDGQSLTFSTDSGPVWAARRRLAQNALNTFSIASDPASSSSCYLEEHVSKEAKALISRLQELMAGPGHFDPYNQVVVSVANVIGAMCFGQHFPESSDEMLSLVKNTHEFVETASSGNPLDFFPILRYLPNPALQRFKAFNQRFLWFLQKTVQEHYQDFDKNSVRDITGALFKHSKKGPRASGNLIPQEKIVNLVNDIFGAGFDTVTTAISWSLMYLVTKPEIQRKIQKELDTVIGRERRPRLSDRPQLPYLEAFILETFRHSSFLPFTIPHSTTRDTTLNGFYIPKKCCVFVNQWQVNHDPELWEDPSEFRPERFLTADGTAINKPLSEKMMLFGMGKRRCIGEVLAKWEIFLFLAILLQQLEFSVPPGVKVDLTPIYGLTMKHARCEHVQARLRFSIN

Cytochrome P450 3A4 = Cytochrome P450 3A4 (Homo sapiens, UniProt P08684);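 also: CYP3A4 tested as one member of a cytochrome P450 panel screen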
[1] = target: T2, Alkaline phosphatase, tissue-nonspecific isozyme (Homo sapiens, UniProt P05186); assay: TNAP enzyme inhibition by screening hits, dose response, selectivity assay for mouse IAP inhibitor project, biochemical, human TNAP, uHTS hits (AID 488906); assay type: functional
T2 sequence (P05186 whole entry): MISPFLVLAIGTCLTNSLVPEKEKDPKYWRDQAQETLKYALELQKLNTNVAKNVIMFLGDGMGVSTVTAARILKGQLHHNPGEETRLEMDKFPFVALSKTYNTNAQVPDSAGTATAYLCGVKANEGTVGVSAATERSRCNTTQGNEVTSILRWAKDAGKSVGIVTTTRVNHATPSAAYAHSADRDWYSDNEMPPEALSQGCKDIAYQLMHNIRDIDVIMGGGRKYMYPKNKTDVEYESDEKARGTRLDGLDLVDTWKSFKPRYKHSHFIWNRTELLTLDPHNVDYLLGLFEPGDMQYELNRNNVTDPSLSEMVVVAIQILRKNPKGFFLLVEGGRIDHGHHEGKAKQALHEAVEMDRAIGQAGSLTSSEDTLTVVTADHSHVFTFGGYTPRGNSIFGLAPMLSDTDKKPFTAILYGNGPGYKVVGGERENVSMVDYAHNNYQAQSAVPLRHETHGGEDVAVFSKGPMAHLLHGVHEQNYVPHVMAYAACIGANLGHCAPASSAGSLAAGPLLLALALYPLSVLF

[2] = target: Intestinal-type alkaline phosphatase (Homo sapiens, UniProt P09923); assay: inhibition of human intestinal alkaline phosphatase – biochemical, dose response (AID 488876); assay type: functional
[3] = target: Intestinal-type alkaline phosphatase (Mus musculus, UniProt P24822); assay: PubChem AID 488785; assay type: functional
HEK293 [4] = assay: SAR Analysis of small molecule inhibitors of B-cell specific antigen receptor-induced NF-kB activation in a HEK-293T cell line using a luminescence assay - Set 2. [Related pubchem assays (depositor defined):AID435022, AID435025, AID489021]; assay type: functional, cell-based; conditions: Homo sapiens
Jurkat = assay: SAR Analysis of small molecule inhibitors of […] specific antigen receptor-induced NF-kB activation in a Jurkat cell line using a luminescence assay - Set 3. [Related pubchem assays (depositor defined):AID435022, AID435025, AID465]; assay type: functional, cell-based; conditions: Homo sapiens
HEK293 [5] = assay: cytotoxicity in HEK293T NF-kB-Luc cells, SAR follow-up, cytotoxicity control for NF-kB activator project, cell-based, resazurin fluorescence (AID 493251); assay type: functional; conditions: Homo sapiens
[6] = cytotoxicity in HEK-293T cells, dose response, cytotoxicity control for BCR NF-kB inhibitor project, luminescence, B-cell screen hits (AID 489021); assay type: functional, cell-based;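 also: HEK-293T cells carrying an NF-kB luciferase reporter; cells exposed to compound for about 14 hours before viability readout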

Intestinal-type alkaline phosphatase (Mus musculus, UniProt P24822), sequence (P24822 whole entry): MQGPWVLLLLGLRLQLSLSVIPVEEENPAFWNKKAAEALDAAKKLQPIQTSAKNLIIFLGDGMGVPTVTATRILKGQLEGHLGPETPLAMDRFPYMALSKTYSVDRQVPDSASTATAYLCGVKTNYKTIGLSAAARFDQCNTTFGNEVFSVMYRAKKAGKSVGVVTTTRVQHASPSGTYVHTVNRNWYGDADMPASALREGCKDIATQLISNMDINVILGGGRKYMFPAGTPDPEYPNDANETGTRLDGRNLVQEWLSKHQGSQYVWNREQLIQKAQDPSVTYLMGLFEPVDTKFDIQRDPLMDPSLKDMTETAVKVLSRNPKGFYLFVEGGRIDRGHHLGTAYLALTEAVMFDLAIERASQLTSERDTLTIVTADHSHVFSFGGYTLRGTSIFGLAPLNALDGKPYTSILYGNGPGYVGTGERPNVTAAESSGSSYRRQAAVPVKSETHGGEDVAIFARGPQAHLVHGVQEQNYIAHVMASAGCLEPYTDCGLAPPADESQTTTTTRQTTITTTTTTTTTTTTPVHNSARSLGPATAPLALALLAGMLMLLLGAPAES
Cytochrome P450 3A4, sequence (P08684 whole entry): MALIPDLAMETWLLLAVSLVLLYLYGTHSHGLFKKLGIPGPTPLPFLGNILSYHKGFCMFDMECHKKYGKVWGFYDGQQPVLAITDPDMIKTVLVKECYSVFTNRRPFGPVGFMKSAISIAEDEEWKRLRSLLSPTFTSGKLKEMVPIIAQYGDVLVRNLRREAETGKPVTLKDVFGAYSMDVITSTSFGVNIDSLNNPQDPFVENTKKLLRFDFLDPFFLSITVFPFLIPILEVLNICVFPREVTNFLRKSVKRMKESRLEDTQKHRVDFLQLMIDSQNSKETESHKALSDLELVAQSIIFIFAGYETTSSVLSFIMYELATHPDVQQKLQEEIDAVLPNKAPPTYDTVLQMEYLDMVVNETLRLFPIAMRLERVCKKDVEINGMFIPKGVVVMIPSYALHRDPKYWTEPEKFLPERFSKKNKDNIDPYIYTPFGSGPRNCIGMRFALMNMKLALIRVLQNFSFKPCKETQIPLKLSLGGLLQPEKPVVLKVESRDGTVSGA
Intestinal-type alkaline phosphatase (Homo sapiens, UniProt P09923), sequence (P09923 whole entry): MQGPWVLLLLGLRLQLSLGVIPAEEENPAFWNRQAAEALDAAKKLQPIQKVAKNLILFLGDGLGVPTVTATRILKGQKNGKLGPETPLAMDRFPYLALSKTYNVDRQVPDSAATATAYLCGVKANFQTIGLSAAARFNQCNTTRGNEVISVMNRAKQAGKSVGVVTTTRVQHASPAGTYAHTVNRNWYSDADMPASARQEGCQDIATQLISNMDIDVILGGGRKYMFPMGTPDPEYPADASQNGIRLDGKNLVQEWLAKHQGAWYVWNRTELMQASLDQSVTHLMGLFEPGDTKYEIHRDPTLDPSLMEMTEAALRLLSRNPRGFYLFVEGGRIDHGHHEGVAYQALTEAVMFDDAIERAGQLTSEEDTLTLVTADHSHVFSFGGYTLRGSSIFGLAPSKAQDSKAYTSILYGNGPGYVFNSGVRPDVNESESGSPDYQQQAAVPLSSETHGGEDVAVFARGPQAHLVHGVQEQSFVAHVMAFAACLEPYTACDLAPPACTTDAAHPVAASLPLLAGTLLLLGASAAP
Cytochrome P450 2C19, sequence (P33261 whole entry): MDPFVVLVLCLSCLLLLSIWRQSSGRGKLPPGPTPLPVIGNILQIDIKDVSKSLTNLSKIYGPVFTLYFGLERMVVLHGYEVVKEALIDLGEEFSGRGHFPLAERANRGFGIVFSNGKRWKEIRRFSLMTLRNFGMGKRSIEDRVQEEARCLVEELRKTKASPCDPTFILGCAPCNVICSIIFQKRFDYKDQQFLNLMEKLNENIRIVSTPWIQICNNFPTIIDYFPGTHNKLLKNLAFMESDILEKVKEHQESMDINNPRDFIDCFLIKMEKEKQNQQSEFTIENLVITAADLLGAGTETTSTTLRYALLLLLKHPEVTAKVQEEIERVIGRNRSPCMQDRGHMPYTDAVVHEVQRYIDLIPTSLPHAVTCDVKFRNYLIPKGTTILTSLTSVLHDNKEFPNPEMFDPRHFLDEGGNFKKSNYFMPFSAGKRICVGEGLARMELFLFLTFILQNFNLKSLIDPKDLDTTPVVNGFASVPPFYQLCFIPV
Cytochrome P450 2D6, sequence (P10635 whole entry): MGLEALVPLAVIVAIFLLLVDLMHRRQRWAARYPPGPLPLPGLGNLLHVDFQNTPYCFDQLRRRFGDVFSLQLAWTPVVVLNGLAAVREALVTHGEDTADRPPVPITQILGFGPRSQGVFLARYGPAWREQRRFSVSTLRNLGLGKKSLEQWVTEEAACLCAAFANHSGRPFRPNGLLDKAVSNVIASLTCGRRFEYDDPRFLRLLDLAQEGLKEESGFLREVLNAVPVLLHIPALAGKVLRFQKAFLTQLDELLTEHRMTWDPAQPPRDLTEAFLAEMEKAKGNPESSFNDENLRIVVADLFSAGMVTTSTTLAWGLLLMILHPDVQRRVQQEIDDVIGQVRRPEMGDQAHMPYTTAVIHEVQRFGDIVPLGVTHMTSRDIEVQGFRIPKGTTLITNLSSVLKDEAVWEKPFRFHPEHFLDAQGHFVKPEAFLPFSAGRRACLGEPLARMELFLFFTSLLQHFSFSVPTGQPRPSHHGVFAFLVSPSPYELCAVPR
Cytochrome P450 2C9, sequence (P11712 whole entry): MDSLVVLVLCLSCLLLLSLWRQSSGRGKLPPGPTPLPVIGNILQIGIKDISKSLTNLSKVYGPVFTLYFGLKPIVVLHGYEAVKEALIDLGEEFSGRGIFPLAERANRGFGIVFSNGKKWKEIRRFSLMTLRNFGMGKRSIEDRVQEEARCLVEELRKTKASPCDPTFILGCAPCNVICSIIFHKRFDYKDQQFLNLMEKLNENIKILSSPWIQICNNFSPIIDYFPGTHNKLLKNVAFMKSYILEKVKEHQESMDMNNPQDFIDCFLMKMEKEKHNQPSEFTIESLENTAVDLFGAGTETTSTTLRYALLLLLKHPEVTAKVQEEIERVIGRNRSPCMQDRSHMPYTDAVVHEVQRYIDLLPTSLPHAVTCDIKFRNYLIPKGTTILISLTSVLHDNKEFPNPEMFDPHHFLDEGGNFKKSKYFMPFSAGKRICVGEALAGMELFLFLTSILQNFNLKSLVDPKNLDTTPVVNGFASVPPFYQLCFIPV

O=C(O)c1cc2ccccc2c(Cc2c(O)c(C(=O)O)cc3ccccc23)c1O [PAMOIC ACID]
inactive: AC50 (Cytochrome P450 2D6) | AC50 (Cytochrome P450 2C19) | AC50 (Cytochrome P450 2C9) | AC50 (Cytochrome P450 1A2) | AC50 (Cytochrome P450 3A4)

O=C(CCN1C(=O)/C(=C/c2ccco2)SC1=S)Nc1ccc(O)cc1C(=O)O
active: IC50 [1] 19.6 µM | IC50 [3] 1.51 µM
inactive: IC50 [2] > 100 µM

CCCNC(=O)CSCc1nc(-c2ccc(SC)cc2)oc1C
inactive: IC50 (HEK293 [4]) 42.5 µM | IC50 (Jurkat) > 80 µM | IC50 (HEK293 [5]) > 80 µM | IC50 [6] > 80 µM
